Experiments:
[1] = tested on: haloperidol-induced stiffness; assay: Haloperidol-induced Parkinson's disease stiffness model in CD-1 mice (rearing and bar tests); type: in vivo
Source text: Parkinson's disease (PD) is a common class of degenerative disease of the nervous system with the main pathological changes including the loss of substantia nigra dopaminergic neurons and the decrease of dopamine transmitter content, leading to tremor at rest, muscle stiffness, […], postural reflex disorders and other clinical symptoms. Haloperidol, a dopamine D2 receptor blocker, can block the dopamine D2 receptor in the striatum, leading to mouse dystonic postures, namely, stiffness and hypokinesia. This model is a recognized animal model of Parkinson's syndrome. The ameliorative effect of a test substance on the stiffness symptom of Parkinson's disease induced by haloperidol in CD-1 mice was evaluated. 57 SPF-grade male CD-1 mice (4 weeks old at the time of purchase and 8 weeks old at the time of experiment) with the weight of about 40 g were randomly divided into 5 groups, namely, a vehicle group (n=11), a group of 1 mg/kg benzene sulfonate of Compound 40 (n=11), a group of 3 mg/kg benzene sulfonate of Compound 40 (n=12), a group of 10 mg/kg benzene sulfonate of Compound 40 (n=12), and a group of 30 mg/kg benzene sulfonate of Compound 40 (n=11). 1 mg/kg haloperidol was injected subcutaneously at an injection volume of 10 ml/kg. 30 minutes after the injection, Compound 40 at each dose was intragastrically infused at a volume of 10 ml/kg. At the 1st hour and the 4th hour after the administration was completed, the rearing and bar tests were performed respectively, and the number of standings and on-bar time of the mice were counted to evaluate the ameliorative effect of Compound 40 on the stiffness symptom of haloperidol-induced Parkinson's disease in CD-1 mice. […] Firstly, the acetate of Compound 22 at each dose was intragastrically infused at a volume of 10 ml/kg. After 30 min, 1 mg/kg haloperidol was injected subcutaneously at an injection volume of 10 ml/kg. At the 1st hour and the 4th hour after the administration was completed, the rearing and bar tests were performed respectively, and the number of standings and on-bar time of the mice were counted to evaluate the ameliorative effect of the acetates of Compound 22 on the stiffness symptom of haloperidol-induced Parkinson's disease in CD-1 mice. […] Firstly, Compound 27 at each dose was intragastrically infused at a volume of 10 ml/kg. After 30 min, 1 mg/kg haloperidol was injected subcutaneously at an injection volume of 10 ml/kg. At the 1st hour and the 4th hour after the administration was completed, the rearing and bar tests were performed respectively, and the number of standings and on-bar time of the mice were counted to evaluate the ameliorative effect of Compound 27 on the stiffness symptom of haloperidol-induced Parkinson's disease in CD-1 mice. The mice were subcutaneously injected with haloperidol at abdomen at a dose of 1 mg/kg, with the concentration of a working solution of 0.1 mg/ml and an injection volume of 10 ml/kg. At the 1st hour and the 4th hour after drug intervention, the mice were put into a white transparent plastic bucket with a diameter of 20 cm and a height of 21 cm. The mice were allowed to acclimate in the bucket for 5 min before starting video recording. The spontaneous activity behaviors of the mice within 10 minutes were recorded, whereby the number of standings was counted. The more the standings, the more frequent the spontaneous exploration activities of the mice, and the lower the degree of stiffness. At the time points of 1st and 4th hours after the rearing test was completed, bar test was carried out. The mice were placed on a long wooden bar with a diameter of […] and a height of 6 cm. The mice were let to hold the wooden bar with forelimbs, only with the buttocks or hind limbs on the ground. The timing was stopped when the hind limbs left the bench top or the fore limbs left the wooden bar, and the on-bar time of the mice was recorded. Each mouse was tested 3 times, and the maximum on-bar time and the average on-bar time were counted. […]

[2] = molecular target: T1, human ADORA2A (Homo sapiens, UniProt P29274); assay: Calcium flow test (FLIPR), ADORA2A stably transfected CHO; type: cell-based; conditions: Table 9
T1 construct: host or cells: CHO
Source text: The binding of the A2AR agonist to A2AR could activate a downstream pathway to increase the intracellular calcium ion concentration. The antagonist would competitively occupy the binding site where the agonist binds to A2AR, thereby interrupting the intracellular signal transduction and leading to a change in the intracellular calcium ion concentration. By detecting the strength of the intracellular calcium ion signal, the antagonistic activities of the compound on human ADORA1, ADORA2A, ADORA2B and ADORA3 adenosine receptors were determined. […]
7) The FLIPR instrument software was operated; following a set program, 10 μL of experimental buffer salt solution was added to the cell plate; and fluorescence signals were read. Then, 10 μL of the reference compound of agonist at a predetermined concentration was added to the cell plate, and the fluorescence signals were read. After reading, data was exported by means of “Max-Min” and “Read 91 to Maximum allowed” in the software, the EC80 of each cell line was calculated, and an agonist with a concentration of 6×EC80 was prepared.
9) The FLIPR instrument software was operated; following a set program, 10 μL of the test compound and 10 μL of the reference compound were added at a predetermined concentration to the cell plate; and the fluorescence signals were read. […]

[3] = Experiment III, 3 mg/kg intragastric, 1 h
[4] = Experiment III, 3 mg/kg intragastric, 4 h
[5] = Experiment III, 10 mg/kg intragastric, 1 h
[6] = Experiment III, 10 mg/kg intragastric, 4 h
[7] = Experiment III, 30 mg/kg intragastric, 1 h
[8] = Experiment III, 30 mg/kg intragastric, 4 h
[9] = Experiment II, 10 mg/kg intragastric, 1 h
[10] = Experiment II, 10 mg/kg intragastric, 4 h
[11] = Experiment II, 3 mg/kg intragastric, 1 h
[12] = Experiment II, 3 mg/kg intragastric, 4 h
[13] = Experiment II, 30 mg/kg intragastric, 1 h
[14] = Experiment II, 30 mg/kg intragastric, 4 h

T1 sequence (P29274 whole entry): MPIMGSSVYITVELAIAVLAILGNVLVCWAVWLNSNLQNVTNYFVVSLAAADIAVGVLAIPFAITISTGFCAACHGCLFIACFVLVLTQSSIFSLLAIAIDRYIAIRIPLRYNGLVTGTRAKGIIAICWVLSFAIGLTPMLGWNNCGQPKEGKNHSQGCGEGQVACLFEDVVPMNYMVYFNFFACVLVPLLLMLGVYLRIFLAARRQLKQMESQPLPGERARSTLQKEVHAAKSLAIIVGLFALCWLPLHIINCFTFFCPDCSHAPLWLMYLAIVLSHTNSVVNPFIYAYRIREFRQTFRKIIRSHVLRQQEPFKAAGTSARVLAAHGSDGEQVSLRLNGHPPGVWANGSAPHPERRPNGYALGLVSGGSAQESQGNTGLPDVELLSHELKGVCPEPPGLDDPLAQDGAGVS

SMILES | Average on-bar time [1, 5] [s] | Maximum on-bar time [1, 5] [s] | Average on-bar time [1, 6] [s] | Maximum on-bar time [1, 6] [s] | IC50 [2] [nM] | Average on-bar time [1, 9] [s] | Maximum on-bar time [1, 9] [s] | Average on-bar time [1, 10] [s] | Maximum on-bar time [1, 10] [s] | other results
COCCNc1ccc(CCNc2nc(N)n3nc(-c4ccco4)nc3n2)cc1 [Compound 27, 2-(furan-2-yl)-N5-(4-((2-methoxyethyl)amino)phenethyl)-[1,2,4]triazolo[1,5-a][1,3,5]triazine-5,7-diamine] | 34.83 ± 8.63 | 61.38 ± 15.59 | 39.13 ± 14.33 | 55.13 ± 18.32 |  |  |  |  |  | Average on-bar time [1, 3]: 56.83 ± 11.67 s; Maximum on-bar time [1, 3]: 88.00 ± 22.07 s; Average on-bar time [1, 4]: 75.11 ± 19.52 s; Maximum on-bar time [1, 4]: 109.33 ± 28.68 s; Average on-bar time [1, 7]: 22.04 ± 4.19 s; Maximum on-bar time [1, 7]: 35.00 ± 8.59 s; Average on-bar time [1, 8]: 23.00 ± 4.46 s; Maximum on-bar time [1, 8]: 31.88 ± 5.75 s
Nc1nc(NCCc2ccc(NC3COC3)cc2)nc2nc(-c3ccco3)nn12 [Compound 22, 2-(furan-2-yl)-N5-(4-(oxetan-3-ylamino)phenethyl)-[1,2,4]triazolo[1,5-a][1,3,5]triazine-5,7-diamine] |  |  |  |  | 0.35 ± 0.07 |  |  |  |  | 
CCn1c(=O)c2c(nc(/C=C/c3ccc(OC)c(OC)c3)n2C)n(CC)c1=O [Istradefylline, reference compound] | 23.71 ± 6.50 | 40.75 ± 13.17 | 34.08 ± 6.69 | 54.75 ± 15.58 |  | 23.04 ± 4.88 | 30.38 ± 5.84 | 24.67 ± 5.21 | 35.75 ± 8.73 | 
Cn1nnc(-c2ccc(CCNc3nc(N)n4nc(-c5ccco5)nc4n3)cc2)n1 [Compound 40, N5-(4-(2-methyl-2H-tetrazol-5-yl)phenethyl)-2-(furan-2-yl)-[1,2,4]triazolo[1,5-a][1,3,5]triazine-5,7-diamine] |  |  |  |  | 1.17 ± 0.62 |  |  |  |  | 
CC(=O)O.Nc1nc(NCCc2ccc(NC3COC3)cc2)nc2nc(-c3ccco3)nn12 [Acetate of Compound 22, 2-(furan-2-yl)-N5-(4-(oxetane-3-ylamino)phenethyl)-[1,2,4]triazolo[1,5-a][1,3,5]triazine-5,7-diamine acetate] |  |  |  |  |  | 41.88 ± 10.56 | 77.13 ± 25.78 | 33.17 ± 6.69 | 50.50 ± 12.24 | Average on-bar time [1, 11]: 109.38 ± 13.74 s; Maximum on-bar time [1, 11]: 157.50 ± 18.11 s; Average on-bar time [1, 12]: 109.33 ± 26.37 s; Maximum on-bar time [1, 12]: 172.25 ± 58.28 s; Average on-bar time [1, 13]: 26.17 ± 3.88 s; Maximum on-bar time [1, 13]: 42.25 ± 8.18 s; Average on-bar time [1, 14]: 24.13 ± 4.28 s; Maximum on-bar time [1, 14]: 32.88 ± 6.21 s

Source: patent US20230048888A1, “USE OF TRIAZOLOTRIAZINE DERIVATIVE IN TREATMENT OF DISEASES” (ZHEJIANG VIMGREEN PHARMACEUTICALS, LTD., priority 2019, published 2023)
